We go through four compounds from patent US10821177B2, “Induction of differential stress resistance and uses thereof” (University of Southern California, priority 2007, dated 2020).

“Also recorded” adds a separate entry of the source. Like-named read-outs stand apart in the source and are kept apart here.

Data set [1] has as its system S. cerevisiae. The class given is cell-based. Particulars: 48-hour treatment with CP (0.1 M), strains treated separately.
Protocol: Overnight cultures were diluted to OD600 0.1 into SDC medium. After 24 hours (day I), the appropriate strains were mixed 1:1 based on OD600 and incubated for 2 hours. […] For treatment SDC, MMS was introduced directly into the mixed culture to a final concentration of 0.01%. However, due to the high concentration of CP (0.1 M) used, CP was dissolved directly into the medium. To do so, mixed cultures were centrifuged for 5 minutes at 2,500 rpm and the media was collected, in which CP was dissolved to a concentration of 0.1 M. The mixed culture was then resuspended in the CP-containing medium. For treatments in water (STS), mixed cultures were centrifuged for 5 minutes at 2,500 rpm and the media was replaced with either distilled/sterile water or drug-dissolved water. Viability was measured by quantifying colony-forming units (CFUs) every 24 hours by plating onto appropriate selective media. Viability of individual strains was measured using the same method as for the mixed cultures.
Data set [2] deals with LID mice. Particulars: for mortality: 500 mg/kg cyclophosphamide i.p. The method, then:
Thirty-four to forty-two-week old LID and their control L/L-mice were used to evaluate the role of circulating liver-derived IGF-I in stress resistance. LID and L/L-mice were generated using the Cre/loxP system as described before. […] All mice were individually caged throughout the experiment and had access to food and water ad libitum. Both LID and L/L-mice were each injected 500 mg/kg of cyclophosphamide i.p. using 29G insulin syringes. Cyclophosphamide was prepared in saline at 40 mg/ml and warmed prior to injection. Mice were routinely monitored for weight loss and signs of pain and stress. Survival time was the main criterion for determining the effect of low circulating IGF-I on the resistance to high-dose cyclophosphamide. The statistical significance of differential survival between experimental groups was determined by Kaplan-Meier curves and log-rank test using GraphPad Prism 4 software (San Diego, Calif.).

Data set [3] deals with primary rat mixed glial cells.
Protocol: (§4) Primary mixed glial cells were obtained from the cerebral cortex of 1 to 3 day old Sprague Dawley rat pups (Charles River) as described before. Cells cultured for 10-14 days in DMEM/F12 medium with 10% fetal bovine serum (FBS) were used in assays. C6, A10-85, 9L and RG2 rat glioma cell lines and LN229 human glioma cell line and SH-SY5Y human neuroblastoma cell line were maintained in DMEM/F12 medium with 10% FBS at 37° C. under 5% CO2.
(§5) Cells were seeded into 96-well microliter plates at 20,000-30,000 cells/well and incubated for 2 days. Cells were washed with phosphate buffered saline (PBS) prior to treatments as indicated in the text. All treatments were performed at 37° C. under 5% CO2.
Glucose restriction was done by incubating cells in glucose free DMEM (Invitrogen) supplemented with either low glucose (0.5 gL) or normal glucose (1.0 gL) for 24 hours. Serum restriction was done by incubating cells in DMEMIF12 with either 10% or 1% FBS for 24 hours. […]
(§6) Cytotoxicity was measured by either LDH release using the CytoTox 96 Non-Radioactive Cytotoxicity Assay kit (Promega) or the ability to reduce methylthiazolyldiphenyltetrazolium bromide (MTT). % LDH release was determined with reference to the maximum and background LDH release of control cells. […]
Cyclophosphamide (CP, Sigma) was used for in vitro chemotherapy studies. […] Cytotoxicity was measured by either lactate dehydrogenase released using the CytoTox 96 Non-Radioactive Cytotoxicity Assay kit (Promega) or the ability to reduce methylthiazolyldiphenyl-tetrazolium bromide (MTT). LDH released into the medium by lysed cells were measured with a 10-minute enzymatic assay that converts a tetrazolium salt (INT) into a red formazan product. A 96-well based colorimetric assay measured the amount of the red formazan formed, which is proportional to the number of dead cells. % LDH release was determined with reference to the maximum and background LDH release of control cells.
Data set [4] concerns primary rat mixed glial cells. In words: Cyclophosphamide cytotoxicity by LDH release (serum restriction, IGF-I, aIR3) in primary glia. The class given is cell-based. Conditions: 15 mg/ml CP, 10% serum.
Protocol: as §4
Cells were seeded into 96-well microliter plates at 20,000-30,000 cells/well and incubated for 2 days. Cells were washed with phosphate buffered saline (PBS) prior to treatments as indicated in the text. All treatments were performed at 37° C. under 5% CO2. […]
as §6
Cyclophosphamide (CP, Sigma) was used for in vitro chemotherapy studies. […] Cytotoxicity was measured by either lactate dehydrogenase released using the CytoTox 96 Non-Radioactive Cytotoxicity Assay kit (Promega) or the ability to reduce methylthiazolyldiphenyl-tetrazolium bromide (MTT). […]
For data set [5], the system named is C6 glioma cells. In words: Cyclophosphamide cytotoxicity by LDH release in C6 glioma cells. The class given is cell-based, rat.
Protocol: as §4, §5
Glucose restriction was done by incubating cells in glucose free DMEM (Invitrogen) supplemented with either low glucose (0.5 gL) or normal glucose (1.0 gL) for 24 hours. Serum restriction was done by incubating cells in DMEMIF12 with either 10% or 1% FBS for 24 hours. IGF-I treatment was carried out by incubating cells for 48 hours in DMEM/F12 with 1% FBS and rhIGF-I (100 n g/ml, ProSpec-Tany TechnoGene, Rehovot, Israel), which is shown to be within the IGF-I level range for middle age humans. To antagonize IGF-I receptor activity, cells were incubated with neutralizing monoclonal anti-IGF-IR antibody (aIR3, 1 pg/ml; Calbiochem) in DMEM/F12 1% FBS for 24 hours.
as §6
Cyclophosphamide (CP, Sigma) was used for in vitro chemotherapy studies. […] Cytotoxicity was measured by either lactate dehydrogenase released using the CytoTox 96 Non-Radioactive Cytotoxicity Assay kit (Promega) or the ability to reduce methylthiazolyldiphenyl-tetrazolium bromide (MTT). LDH released into the medium by lysed cells were measured with a 10-minute enzymatic assay that converts a tetrazolium salt (INT) into a red formazan product.
Data set [6] has as its system sch9/aktΔRAS2^val19 cells. In words: Yeast viability (CFU) in mixed cultures, chronic MMS treatment, RAS2val19-expressing cells. The class given is cell-based, S. cerevisiae. Particulars: 48-hour treatment, 0.01% MMS. The method, then: (§1) Overnight cultures were diluted to OD600 0.1 into SDC medium. After 24 hours (day I), the appropriate strains were mixed 1:1 based on OD600 and incubated for 2 hours. The mixed cultures were then treated with either cyclophosphamide (CP, 0.1 M) or […] (MMS, 0.01%, Sigma) in medium or water (STS). For treatment SDC, MMS was introduced directly into the mixed culture to a final concentration of 0.01%. However, due to the high concentration of CP (0.1 M) used, CP was dissolved directly into the medium. To do so, mixed cultures were centrifuged for 5 minutes at 2,500 rpm and the media was collected, in which CP was dissolved to a concentration of 0.1 M. The mixed culture was then resuspended in the CP-containing medium. […] Viability was measured by quantifying colony-forming units (CFUs) every 24 hours by plating onto appropriate selective media. Viability of individual strains was measured using the same method as for the mixed cultures.
(§2) Overnight SDC cultures were diluted to OD600 0.1 into fresh SDC medium. […] Viability was measured as colony-forming units (CFUs) every 24 hours by plating onto appropriate selective media. Viability of individual strains was measured using the same method as for the mixed cultures. Relative survival shown was determined by the percentage of the ratio between the treated and untreated (control) cells.

For data set [7], the system named is sch9/aktΔ. In words: Yeast viability (CFU) in mixed cultures, chronic MMS treatment, sch9/aktΔ cells. Particulars: 48-hour treatment, 0.01% MMS, mixed culture. The class given is cell-based, S. cerevisiae. The method, then: as §1, §2
Data set [8] has as its system cortical neurons from E18 rat embryos. Conditions: pre-treatment with inhibitor. On the procedure: FIG. 23. […] Cortical neurons from E18 rat embryos were cultured onto 96-well plates (A) or glass coverslips in 6-well plates (B). On 10-14 DIV, the neurons were pre-treated with MEK1/ERK1/2 inhibitors U0126 or SL327. Oxidative stress was induced by hydrogen peroxide or menadione. Cell viability was measured with MTT survival assay (A) or live/dead assay (B). C) % death was calculated from the number of dead (red) and live (green) cells.

In data set [9] the test system is primary rat cortical neurons. In words: IGF-I and paraquat oxidative toxicity, MTT, cortical neurons. The data set is classed as cell-based. Particulars: 100 ng/ml IGF-I 24 hr, 100 μM paraquat. On the procedure: (§3) FIG. 12. […] Primary rat cortical neurons or PC12 cells incubated in 1% serum and 4 g/L glucose were treated for 24 hr with vehicle, 100 μM of paraquat, 100 ng/ml of IGF-I followed by 100 μM of paraquat, or 100 ng/ml of IGF-1 alone and were then subjected to MTT reduction activity assay to assess cell viability. Data from 4 independent experiments are normalized to control and expressed as the mean±S.E.M.
Primary neurons from embryonic day 18 Sprague-Dawley rat cerebral cortices were dissociated in neurobasal medium (Invitrogen) supplemented with 0.5 mM L-glutamine, 25 μM L-glutamic acid and 2% B-27 and plated at 640 cells/mm^2 in 96-well plates which were pre-coated with 10 microg/ml poly-D-lysine dissolved in Borax buffer (0.15 M, pH 8.4). Neurons were maintained at 37° C. in 5% CO2 in neurobasal medium supplemented with B-27 and 0.5 mM L-glutamine for 4 days.
Primary rat neurons and PC12 cells were treated with IGF-1 and paraquat to determine the effect of IGF-1 on oxidative stress. Cortical neurons were treated for 24 hours in Eagle's minimal essential medium (Invitrogen) supplemented with 21 mM glucose and 1% horse serum. PC12 cells were plated at 5×10^4 cells/well onto poly-D-lysine coated. 96-well plates and were grown for 24 hours in F12K 1% HS. […] Survival was determined by the MTT assay and presented as percent ratio of treated to control.

Data set [10] has as its system PC12 cells. In words: IGF-I and paraquat oxidative toxicity, MTT, PC12 cells. Conditions: 100 ng/ml IGF-I 24 hr, 100 μM paraquat. The data set is classed as cell-based, rat. On the procedure:
as §3
Primary rat neurons and PC12 cells were treated with IGF-1 and paraquat to determine the effect of IGF-1 on oxidative stress. Cortical neurons were treated for 24 hours in Eagle's minimal essential medium (Invitrogen) supplemented with 21 mM glucose and 1% horse serum. PC12 cells were plated at 5×10^4 cells/well onto poly-D-lysine coated. 96-well plates and were grown for 24 hours in F12K 1% HS. Both types of cells were then treated with either 100 μM of paraquat, IGF-1 (100 ng/ml) followed 30 minutes later by paraquat (100 μM) or IGF-1 (100 ng/ml) alone in appropriate media. Survival was determined by the MTT assay and presented as percent ratio of treated to control.

For `O=P1(N(CCCl)CCCl)NCCCO1` (stereo not drawn) [CP, cyclophosphamide], the “toxicity to RAS2^val19 and wild type cells” value in [1] is “toxic”. For the same compound, the average weight loss in data set [2] (LID mice, 500 mg/kg cyclophosphamide) was found to be 10%. Besides, the figures for the mortality in data set [2] (LID mice) and in [2] (control mice) were 30% and 70%, respectively. The compound further had a weight loss in data set [2] (control mice, 500 mg/kg cyclophosphamide) of 20%. For the same compound, in [2] (surviving LID mice), the “signs of toxicity in surviving mice” value is “did not show any signs of toxicity”. In data set [3] (12 mg/ml CP, 0.5 g/L glucose), this compound displayed a glial cells resistant of 80%. Besides, the cells that survived in data set [3] (12 mg/ml CP, 1 g/L glucose) worked out at 20%. The “differential stress resistance of mammalian cells by the starvation-response methods” value in [3] (normal vs cancer cells) is listed as “less than 10 fold”. Moreover, in data set [4], the “toxicity to primary glial cells” value is given as “toxic”. Moreover, the “toxicity to C6 glioma cells in 10% serum versus 1% serum” value in data set [5] (15 mg/ml CP) is recorded as “as toxic”.

As for `COS(C)(=O)=O` [MMS, methyl methanesulfonate], the “sch9/aktΔRAS2^val19 cells that survived” value in [6] (mixed culture (Example I)) was “none”; in [6] (mixed culture (Example II)), “less than 5%”. Further, the “sch9/aktΔ cells that survived” value in [7] is “great majority”.

Turning to `N#CC(=C(/N)Sc1ccccc1N)/C(C#N)=C(\N)Sc1ccccc1N` [U0126], the “resistance of neurons to oxidative stress (hydrogen peroxide or menadione)” value in data set [8] is on record as “protects neurons against oxidative stress”.

Regarding “IGF-I: rhIGF-I (ProSpec-Tany TechnoGene), 100 ng/ml”, the “sensitization to oxidative toxicity” value in data set [9] was “sensitizes”; in data set [10] it was “not in PC12 cells”. Further, the “increase in the toxicity of CP to C6 glioma cells” value in [5] (100 ng/ml IGF-I) is “minor increase; also recorded: did not increase”.
